One experiment deals with FoxO3a. Description: Western blotting of FoxO3a protein expression in HaCaT. In kind it is cell-based, human. The note with it: for level of protein expression of FoxO3a, single material: treated as in Example 3-2, compared to negative control, FIG. 4E. Here is the method: A HaCaT cell line was cultured in the same manner as described in Example 1. […] Then, western blotting was carried out by using FoxO3a antibody as a primary antibody.
Then, western blotting was carried out by using FoxO3a antibody as a primary antibody so as to carry out comparative analysis on the level of protein expression.
(A western blot detects proteins with antibodies after separation by electrophoresis.)

The test system of a further experiment is ERK. Description: Western blotting of ERK activity (pERK) in HaCaT. The experiment is classed as cell-based, human. The note with it: pachastrissamine 10 μg/ml, U0126 20 nM, 30 minutes, FIG. 3C. Here is the method:
A HaCaT cell line was cultured in the same manner as described in Example 1. […] The last group was a negative control group (−) and was added with nothing.

Another experiment concerns FoxO3a / beta-catenin. The note with it: U0126, 30 minutes, FIG. 5C. Here is the method:
In a HaCaT cell line, pachastrissamine's effect on FoxO3a protein which can be degraded over-expression of beta-catenin was researched. In the same manner as described in Example 1, the HaCaT cell line was cultured. The cultured cells were transfected with beta-catenin so as to induce over-expression of beta-catenin. The cultured cells were plated onto a 6-well plate at a concentration of 3×10^5 cells/well and cultured for 24 hours. After the culturing, after about 12 hours of serum starvation, cells with over-expression of beta-catenin and other cells with transfection of vector were treated with U0126 (ERK inhibitor), and reacted for 30 minutes.

The test system of a further experiment is GSK3-beta / beta-catenin. Description: Western blotting of pGSK3-beta, GSK3-beta, pCatenin and Catenin in HaCaT. The experiment is classed as cell-based, human. The note with it: pachastrissamine 10 μg/ml, LiCl 300 nM, 30 minutes, FIG. 5A. Here is the method:
The pachastrissamine's effect on beta-catenin protein expression was researched. In the same manner as described in Example 1, a HaCaT cell line was cultured.

The next experiment deals with HaCaT cell. Description: Phase-contrast microscope morphology analysis of surviving cells. In kind it is cell-based, human. The note with it: lithium chloride only, 300 nM; 24 hours; FIG. 2D. As for the experimental part:
HaCaT, B16F10 and A375 cell lines were cultured in the same manner as described in Example 1. The cultured HaCaT cell line was plated onto a 60 mm plate at a concentration of 5×10^4 cells/well, and cultured in a CO2 incubator (37° C., 5%) for 24 hours. The cultured respective cells were divided into 4 groups. One group was added with only pachastrissamine (PA) at a concentration of 10 μg/ml; another group was added with lithium chloride (apoptosis inhibiting material) (at a final concentration of 300 nM) as well as pachastrissamine at a concentration of 10 μg/ml (PA+Li); and a third group was added with only lithium chloride (Li). The last group was a negative control group (Con) and was added with nothing. These groups were cultured in a CO2 incubator (37° C., 5%) for 24 hours, and then the number of cells were measured in the same manner as described in Example 2-2.
The four groups of HaCaT cell samples were washed with PBS, and then surviving cells were subjected to morphology analysis through a phase-contrast microscope (see FIG. 2f).

The test system of the next experiment is HaCaT cell line. Description: MTT cell viability analysis (cytotoxicity), HaCaT. The experiment is classed as cell-based, human. The note with it: 0, 0.9, 1.8, 3.7, 7.5, 10 μg/ml, 24 hours, FIG. 1. Here is the method:
(§1) Pachastrissamine's cytotoxicity on a HaCaT cell line and a malignant melanoma cell line was researched through MTT cell viability analysis.
(§2) First, each of a HaCaT cell line (German Cancer Research, obtained from prof. N. Fuseni, Germany), and two kinds of malignant melanoma cell lines, B16F10 (B16) and A375 were inoculated into a DMEM (Dulbecco's Modified Eagle's Medium) culture medium added with 10% FBS (Thermo Fisher Scientific Inc.), 100 unit/ml penicillin, and 100 μg/ml streptomycin, and then cultured in a CO2 incubator (Form a Scientific, Inc.) (37° C., 5%).
(§3) The cultured HaCaT, B16F10, and A375 cells were plated onto a 96-well plate at a concentration of 5×10^4 cells/well, and cultured in a CO2 incubator (37° C., 5%) for 24 hours. The cells in respective wells were treated with pachastrissamine and phytosphingosine at various concentrations of 0, 0.9, 1.8, 3.7, 7.5, 10 μg/ml, and cultured in a CO2 incubator (37° C., 5%) for 24 hours. After the culturing, in a state where the culture medium existed, each well was added with 5 mg/ml MTT reagent at a concentration of 20 μl/[…], and cultured in an incubator for 2 hours. After 2 hours, the culture medium was removed, and each well was added with 150 μl of DMSO (dimethyl sulfoxide). Then, a spectrophotometer was used to measure the absorbance at 540 nm, thereby analyzing the cell viability. Herein, the cell viability was represented as a relative value with respect to 100% of cell viability in a control group not treated with pachastrissamine and phytosphingosine.

In the next experiment the test system is p-FoxO3a (Ser 253). Description: Western blotting of p-FoxO3a (Ser 253). In kind it is cell-based. The note with it: HaCaT, A375, B16F10; 10 μg/ml; 30 minutes; FIGS. 4B, 4C. Here is the method: In the same manner as described in Example 4-1, a HaCaT cell line and malignant melanoma cell lines (A375 and B16F10) were treated with pachastrissamine and phytosphingosine at a concentration of 10 μg/ml for 30 minutes and 60 minutes, respectively. Then, western blotting was carried out using p-FoxO3a (Ser 253) antibody.

Experiment [1] concerns malignant melanoma cell line B16F10. Description: MTT cell viability analysis (cytotoxicity), B16F10. In kind it is cell-based. The note with it: 0, 0.9, 1.8, 3.7, 7.5, 10 μg/ml, 24 hours, FIG. 1. Here is the method: as §1, §2, §3
A further experiment deals with AKT. Description: Western blotting of AKT phosphorylation. In kind it is cell-based. The note with it: HaCaT, B16F10, A375; 10 μg/ml pachastrissamine, 5 μg/ml phytosphingosine; 30 minutes; FIGS. 3A, 3B. As for the experimental part:
HaCaT, B16F10 and A375 cell lines were cultured in the same manner as described in Example 1. […] 30 minutes later, and 60 minutes later, each of the cell lines was resuspended in RIPA buffer [12 mM EDTA, 137 mM NaCl, 20 mM Tris-HCl (pH 8.0), 1 mM Na3VO4 (Sigma-Aldrich, USA) 10 mM NaF (Sigma), 1 mM PMSF (Sigma), 1% Triton X-100, 10% glycerol, protease inhibiting cocktail (Roche, Germany)], and then put on ice for 30 minutes so that the cells can be completely lysed. The lysate was centrifuged at 14000 rpm for 30 minutes, and the supernatant was collected. A BCA protein analysis kit (Pierce, Rockford, Ill.) was used to determine the concentration of each sample, and the sample was subjected to electrophoresis (SDS-PAGE). Western blotting was carried out on the protein isolated by the electrophoresis. After electrophoresis of the sample, the protein was transferred to a polyvinylidene fluoride membrane (Pall Corporation). Then, after blocking the membrane at room temperature for one hour using 5% BSA solution (Amresco, USA), it was treated with primary antibodies and reaction was carried out for 12 hours at 4° C. The primary antibodies were AKT antibody and Actin antibody (Cell Signaling Technology, Beverly, Mass.), which are antibodies associated in cell proliferation-related signaling. After reaction with primary antibodies, it was washed for about 30 minutes and further reacted for 1 hour at room temperature by treating with HRP-conjugated secondary antibodies. Then, after washing sufficiently for over 30 minutes, protein was identified using an ECL detection kit (intron Biotechnology).

Experiment [2] concerns malignant melanoma cell line A375. Briefly: MTT cell viability analysis (cytotoxicity), A375. The note with it: 0, 0.9, 1.8, 3.7, 7.5, 10 μg/ml, 24 hours, FIG. 1. The experiment is classed as cell-based. As for the experimental part: as §1, §2, §3

Each structure is given as a SMILES string.

Consider `COc1cccc(-c2cc(=O)c3ccccc3o2)c1N` [PD98059, reference compound], for which the “level of protein expression of FoxO3a, single material” value in the experiment with FoxO3a is recorded as “significantly increased”.
With `N#CC(=C(/N)Sc1ccccc1N)/C(C#N)=C(\N)Sc1ccccc1N` [U0126, reference compound], the “level of protein expression of FoxO3a, single material” value with FoxO3a is reported as “significantly increased”. For the same molecule, in the experiment on ERK, the “ERK activation (phosphorylation of ERK)” value is reported as “almost completely inhibited the phosphorylation of ERK”. Also, the “expression level of FoxO3a protein reduced by over-expression of beta-catenin” value in the experiment on FoxO3a / beta-catenin (HaCaT transfected with beta-catenin) was “restored”. In addition, the “protein expression level of beta-catenin” value with FoxO3a / beta-catenin (HaCaT with or without over-expression of beta-catenin) is recorded as “no effect”.
For the molecule `[Cl-].[Li+]` [lithium chloride, reference compound], in the experiment on GSK3-beta / beta-catenin, the “phosphorylation of GSK3-beta” value is recorded as “GSK3-beta was phosphorylated” and the phosphorylation of beta-catenin result is “inhibited the phosphorylation of beta-catenin”. Further, the cell division extent result in the experiment on HaCaT cell was “increased”.
With `CCCCCCCCCCCCCC[C@@H](O)[C@@H](O)[C@@H](N)CO` [phytosphingosine, reference compound], the “protein expression level of FoxO3a compared to control group” value with FoxO3a (5 and 10 μg/ml, 24 hours, FIG. 4A) is reported as “increased”. Also, the “cell viability (number of surviving cells) with increasing concentration” value (in the experiment with HaCaT cell line; in experiment [1]; in experiment [2]) was “the number of surviving cells was reduced” in each case. The “amount of expressed p-FoxO3a after 30 minutes” value with p-FoxO3a (Ser 253) was “reduced”. Besides, in the experiment with AKT, the “phosphorylation of AKT after 30 minutes” value is given as “reduction of phosphorylation of AKT”.
